Values of other authors as cited in patent US20240180821A1, “ORALLY DISINTEGRATING FILM COMPOSITION OF KETOROLAC AND A METHOD OF PREPARATION THEREOF” (LN LABORATORIES PVT LTD, priority 2021, published 2024).

- pKa: 3.5
Structure (SMILES): O=C(c1ccccc1)c1ccc2n1CCC2C(=O)O (racemic) [Ketorolac tromethamine, (±)-5-Benzoyl-2,3-dihydro-1H-pyrrolizine-1-carboxylic acid, compound with 2-amino-2-(hydroxymethyl)-1,3-propanediol]
